Assay results published in PubChem BioAssay (NCI).
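Test compounds were applied to cells in 96-well plates for 48 hours at 5 doses. Here, GI50 denotes the concentration required for 50% inhibition of growth. Definition used: TGI = concentration required for complete inhibition of growth.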

Legend:
Assay in all cases: DTP human tumour cell line panel, 48 h
NCI-H226 lung = tested on: NCI-H226 lung
CCRF-CEM leukemia = tested on: CCRF-CEM leukemia
HS 578T breast = tested on: HS 578T breast
NCI-H522 lung = tested on: NCI-H522 lung
K-562 leukemia = tested on: K-562 leukemia
RXF 393 renal = tested on: RXF 393 renal
U251 CNS = tested on: U251 CNS
HL-60(TB) leukemia = tested on: HL-60(TB) leukemia
OVCAR-8 ovarian = tested on: OVCAR-8 ovarian
SR leukemia = tested on: SR leukemia

| SMILES | TGI (NCI-H226 lung) | TGI (CCRF-CEM leukemia) | TGI (HS 578T breast) | TGI (NCI-H522 lung) | TGI (K-562 leukemia) | TGI (RXF 393 renal) | TGI (U251 CNS) | TGI (HL-60(TB) leukemia) | TGI (OVCAR-8 ovarian) | TGI (SR leukemia) | GI50 (CCRF-CEM leukemia) | GI50 (NCI-H522 lung) | GI50 (K-562 leukemia) | GI50 (RXF 393 renal) | GI50 (OVCAR-8 ovarian) | GI50 (NCI-H226 lung) | GI50 (HS 578T breast) | GI50 (U251 CNS) |
| --- | --- | --- | --- | --- | --- | --- | --- | --- | --- | --- | --- | --- | --- | --- | --- | --- | --- | --- |
| [N-]=[N+]=NC(c1ccccc1)(c1ccccc1)c1ccccc1 | 33.2 µM | 55.4 µM | 51.8 µM | 33.5 µM | 42.5 µM | 32.9 µM | 29.2 µM | 39.4 µM | 35.1 µM | – | – | – | – | – | – | – | – | – |
| CC(C)=CCC[C@@H](C)c1c(O)c(O)c(C)c2nccnc12 | 37.1 µM | > 36.5 µM | > 80.2 µM | 23.6 µM | > 66.6 µM | > 89.1 µM | > 100 µM | – | > 48.6 µM | > 100 µM | – | – | – | – | – | – | – | – |
| Nc1nc2c(c(-c3cccc(Cl)c3)n1)COC/C2=C\c1cccc(Cl)c1 | > 100 µM | > 100 µM | > 100 µM | > 100 µM | > 100 µM | > 100 µM | > 100 µM | > 100 µM | > 100 µM | – | – | – | – | – | – | – | – | – |
| C#CCn1c(=O)c2ccccc2n(CC#C)c1=O | > 10 µM | > 10 µM | > 10 µM | > 10 µM | > 10 µM | > 10 µM | > 10 µM | – | > 10 µM | – | – | – | – | – | – | – | – | – |
| Nn1c(-c2ccccc2)n[nH]c1=O | > 100 µM | > 100 µM | > 100 µM | > 100 µM | – | – | > 100 µM | > 100 µM | > 100 µM | > 100 µM | – | – | – | – | – | – | – | – |
| O=C1c2cc3c(cc2-c2c1c1ccc(F)cc1c(=O)n2C[C@H](O)[C@@H](O)[C@H](O)CO)OCO3 | – | 2.18 µM | – | 0.137 µM | > 100 µM | 0.432 µM | – | – | > 100 µM | – | 34.4 nM | 16.7 nM | 64.5 nM | 162 nM | 90.4 nM | – | – | – |
| Nn1c(Nc2ccc(S(=O)(=O)Nc3ncccn3)cc2)nnc(/C=C/c2c(O)ccc3ccccc23)c1=O | – | 47.9 µM | > 100 µM | 69.6 µM | > 100 µM | 80.3 µM | > 100 µM | 45.2 µM | > 100 µM | 66.8 µM | – | – | – | – | – | – | – | – |
| COC(=O)[C@@H](O)[C@](O)(CCC(C)C)C(=O)O[C@@H]1C(OC)=C[C@]23CCCN2CCc2cc4c(cc2[C@H]13)OCO4 | 6.31 µM | > 27 µM | – | 2.99 µM | 23 µM | 5.41 µM | 6.05 µM | 2.96 µM | 6.51 µM | – | – | – | – | – | – | – | – | – |
| Cc1ccc(NC(=O)CC2Sc3ccccc3NC2=O)cc1C (stereo not drawn) | > 100 µM | 92.3 µM | – | > 100 µM | > 100 µM | > 100 µM | > 100 µM | 66.1 µM | > 100 µM | > 100 µM | – | – | – | – | – | – | – | – |
| CC(=O)N1C(C(=O)NC2CCCCC2)CSC1c1ccccc1 (stereo not drawn) | > 100 µM | > 100 µM | > 100 µM | > 100 µM | > 100 µM | – | > 100 µM | > 100 µM | > 100 µM | > 100 µM | – | – | – | – | – | – | – | – |
| CCN(CC)CCNC(=O)c1cc2cc(NC(=O)c3cc4cc([N+](=O)[O-])ccc4[nH]3)ccc2[nH]1 | > 87.3 µM | – | – | – | – | > 100 µM | – | – | > 100 µM | > 100 µM | – | – | – | – | – | – | – | – |
| Nc1nc(SCCC/C=C/I)nc2c1ncn2C1OC(COP(=O)(O)O)C(O)C1O (stereo not drawn) | > 100 µM | > 100 µM | – | > 100 µM | > 100 µM | > 100 µM | > 100 µM | > 100 µM | > 100 µM | > 100 µM | – | – | – | – | – | – | – | – |
| CCOP(=O)(OCC)C(F)(F)c1ccc(CC(NC(=O)OC(C)(C)C)C(=O)O)cc1 (stereo not drawn) | > 10 µM | > 10 µM | > 10 µM | – | > 10 µM | – | > 10 µM | – | > 10 µM | – | – | – | – | – | – | – | – | – |
| Cc1ccc(-c2csc(=Nc3ccccc3)n2NC(=O)c2ccncc2)cc1 | > 75.2 µM | > 67.5 µM | > 100 µM | – | 36.1 µM | > 100 µM | > 31.6 µM | > 69.2 µM | > 90.9 µM | > 100 µM | – | – | – | – | – | – | – | – |
| O=C(C1OC1c1ccc(Br)cc1O)C12CC3CC(CC(C3)C1)C2 (stereo not drawn) | > 100 µM | > 100 µM | 47.8 µM | 45.2 µM | 44.8 µM | 72.4 µM | 30.8 µM | 40.9 µM | > 100 µM | – | – | – | – | – | – | – | – | – |
| COc1nncc2[nH]c(-c3ccccc3)cc12 | > 100 µM | > 100 µM | > 100 µM | – | > 100 µM | > 100 µM | > 100 µM | > 100 µM | > 100 µM | > 100 µM | – | – | – | – | – | – | – | – |
| O=S(=O)(c1ccccc1)c1cccc2c1NCCC2 | > 100 µM | > 100 µM | > 100 µM | – | > 100 µM | 90.1 µM | – | 67.4 µM | > 100 µM | > 100 µM | – | – | – | – | – | – | – | – |
| Cc1cccc(Cn2c3c(c4cc(O)ccc42)C(=O)c2ccccc2C3=O)c1 | > 100 µM | > 100 µM | > 100 µM | – | > 100 µM | 21.2 µM | 88.3 µM | > 89 µM | > 93.2 µM | > 100 µM | – | – | – | – | – | – | – | – |
| C[C@]12CC[C@H](O)CC1=CC[C@@H]1[C@@H]2CC[C@]2(C)C(=N/N)/C(=N\O)C[C@@H]12 | > 100 µM | > 100 µM | – | > 100 µM | > 100 µM | > 100 µM | 43.4 µM | 67.7 µM | > 100 µM | > 100 µM | – | – | – | – | – | – | – | – |
| CCC(=O)NCC1CCCN2CCCCC12 (stereo not drawn) | > 100 µM | > 100 µM | > 100 µM | – | > 100 µM | > 100 µM | > 100 µM | > 100 µM | > 100 µM | – | – | – | – | – | – | – | – | – |
| COc1ccc(CN2C(=O)/C(=C\c3cc(OC)c(OC)c(OC)c3)c3ccccc32)cc1 | 9.23 µM | > 100 µM | 55.5 µM | 3.57 µM | – | – | 2.98 µM | – | > 100 µM | – | 1940 nM | 1580 nM | – | – | 3050 nM | 2960 nM | 3.78 µM | 1560 nM |
| CCOC(=O)c1c(CN2CCCC2)n(-c2ccccc2)c2cc(Br)c(O)cc12 | – | 34.8 µM | 74.9 µM | 36.3 µM | 41.2 µM | 25.6 µM | 30.4 µM | 27.5 µM | 49.1 µM | 42.8 µM | – | – | – | – | – | – | – | – |
| O=C(c1ccccn1)C1(N2CCCCC2)CCCCC1 | > 100 µM | > 100 µM | 39.5 µM | 37 µM | > 100 µM | – | > 100 µM | > 100 µM | > 100 µM | > 100 µM | – | – | – | – | – | – | – | – |
